# Read-outs that look alike come from different tables or passages of the source.
# Experiments:
# Caco-2 cells = assay: In vitro Caco-2 monolayer model, apical to basolateral transport (P app); format: in vitro ADME, human; conditions: for P app in product C group, % compared to that in product A group / P app in product C group, % compared with that in product B group: HBSS pH 6.0, apical to basolateral; for absorption into Caco-2 cells: dipsacoside B, macranthoidin B in product C or A group, arctiin in product C or B group
# Procedure: Caco-2 cells were cultured in high glucose DMEM with 10% fetal bovine serum, 1% nonessential amino acids. Cells were cultured in a humidified atmosphere of 5% CO2 at 37°C. After reaching 80% confluens, Caco-2 cells were harvested with 0.05% trypsin-EDTA solution and seeded on top of CC inserts in 6-well plates, which has a surface area of 4.2 cm^2, at a density of 1.0×10^5 cells/cm^2. The protocols for cell culture in Transwell inserts were similar to those described previously.
# Hank’s balanced salt solution (HBSS) was used as the transport buffer for the transport study in Caco-2 cells monolayer model. It was prepared by dissolving 9.5 grams of commercial available HBSS powder in 1000 mL water.
# Cell culture experiments were described previously. Briefly, after culture medium was aspirated, the cell monolayers were washed three times with blank HBSS. […] The monolayers were incubated with the blank HBSS for 1 h with 37°C. Thereafter the incubation medium was aspirated. Afterwards, a solution containing the compound was loaded onto the apical side. The amounts of transported compound were measured as a function of time. […] The samples were taken at 0, 1, 2, 3 and 4 h after incubation. At the end of the transport experiment, integrity of the monolayer was monitored by TEER value.
# [1] = Rat in vivo pharmacokinetics study after oral administration of product A, B or C; parameters: species or system Male Sprague-Dawley (SD) rats; AUC 0→t in product C group, increased to % compared to that in product A or B groups: concentration or dose not given beside the values; conditions: for AUC(0-inf) / MRT / Tmax / half-life / Cmax / AUC(0-t): male, Sprague-Dawley, rat, plasma; for AUC(0-inf) / MRT / Tmax / half-life / Cmax: po, 10 mL·kg^−1, rats; for AUC(0-inf) / MRT / Tmax / half-life / AUC(0-t): 10 mL·kg^−1; for half-life: read-out: T 1/2z; for Cmax: mean±SD; for bioavailability in product C group compared with that in product A group / bioavailability in product C group compared with that in product B group / AUC(0-t) / AUC 0→t in product C group, increased to % compared to that in product A or B groups / AUC 0→t in product C group compared with product A or B group: rats; for bioavailability in product C group compared with that in product A group / bioavailability in product C group compared with that in product B group / AUC 0→t in product C group, increased to % compared to that in product A or B groups / AUC 0→t in product C group compared with product A or B group: oral; for AUC(0-t): oral product C group; for AUC 0→t in product C group, increased to % compared to that in product A or B groups: product C versus product A or B; for AUC 0→t in product C group compared with product A or B group: same dosages administrated
# Procedure: Product A (extract mixed with FLJ extract and water, (1∶1, v / v )), product B (extract mixed with FF extract and water, (1∶1, v / v )) and product C (extract mixed with FLJ and FF extracts, (1∶1, v / v )) were given to oral administration to rats, respectively.
# Male SD rats (∼250 g) were kept in an environmentally controlled breeding room (temperature: 20±2°C, relative humidity: 60±5%) for 1 week. […] The rats were randomly divided into three groups with no less than six rats in each group to receive various administrations at a single oral dose (10 mL·kg^−1) by gastric gavage. […] Subsequently, plasma was prepared by centrifugation at 1,816×g, 4°C for 7 min, and immediately analyzed or stored at −70°C for further analysis.
# The main pharmacokinetic parameters including the peak plasma concentration (C max), the time to C max (T max), the AUC from 0 to infinity (AUC 0–∞), the AUC form 0 to time (AUC 0–t), mean residence time (MRT), and terminal elimination half-life (T 1/2z) were calculated by the non-compartmental analysis of plasma concentration vs. time data using the “DAS 2.1.1” software (Mathematical Pharmacology Professional Committee of China, Shanghai, China).
# [2] = single oral dose 10 mL·kg^−1 of product A (FLJ extract and water 1:1)
# [3] = single oral dose 10 mL·kg^−1 of product B (FF extract and water 1:1)
# [4] = single oral dose 10 mL·kg^−1 of product C (FLJ and FF extracts 1:1)
"P app in product C group, % compared to that in product A group (Caco-2 cells; Caco-2 monolayer)",AUC(0-inf) ([1]; oral product A),MRT ([1]; oral product A),Tmax ([1]; oral product A),half-life ([1]; oral product A),MRT ([1]; oral product B),half-life ([1]; oral product B),AUC(0-inf) ([1]; oral product C),MRT ([1]; oral product C),Tmax ([1]; oral product C),half-life ([1]; oral product C),"Cmax [1, 2]","Cmax [1, 3]","Cmax [1, 4]",AUC(0-t) [1],Tmax ([1]; oral product B),Compound,"P app in product C group, % compared with that in product B group (Caco-2 cells; Caco-2 monolayer)",AUC(0-inf) ([1]; oral product B),bioavailability in product C group compared with that in product A group [1],bioavailability in product C group compared with that in product B group [1],other results
131%,4.32 ng·h/mL,8.15 h,0.167 h,7.67 ± 0.263 h,–,–,6.26 ng·h/mL,11.3 h,0.167 h,11.6 ± 1.72 h,0.441 ± 0.166 ng/mL,–,0.551 ± 0.207 ng/mL,4.17 ng·h/mL,–,O=c1c(O[C@@H]2O[C@H](CO)[C@@H](O)[C@H](O)[C@H]2O)c(-c2ccc(O)cc2)oc2cc(O)cc(O)c12 [Astragalin],–,–,–,–,"AUC 0→t in product C group, increased to % compared to that in product A or B groups [1]: 145%"
211%,92.9 ng·h/mL,5.82 h,0.35 h,2.07 ± 0.205 h,–,–,140 ng·h/mL,7.83 h,0.267 h,7.33 ± 0.273 h,28 ± 4.93 ng/mL,–,54.7 ± 8.63 ng/mL,108 ng·h/mL,–,COC(=O)C1=CO[C@@H](O[C@@H]2O[C@H](CO)[C@@H](O)[C@H](O)[C@H]2O)[C@@H]2[C@@H](C)[C@@H](O)C[C@H]12 [Loganin],–,–,–,–,"AUC 0→t in product C group, increased to % compared to that in product A or B groups [1]: 121%"
–,–,–,–,–,–,–,–,–,–,–,–,–,–,–,–,COc1ccc(C[C@H]2COC(=O)[C@@H]2Cc2ccc(O[C@@H]3O[C@H](CO)[C@@H](O)[C@H](O)[C@H]3O)c(OC)c2)cc1OC [arctiin],–,–,–,–,absorption into Caco-2 cells (Caco-2 cells): might not be absorbed well
293%,240 ng·h/mL,10.8 h,0.233 h,10 ± 1.27 h,–,–,28.6 ng·h/mL,7.72 h,0.25 h,6.85 ± 1.13 h,5.09 ± 2.46 ng/mL,–,2.3 ± 1 ng/mL,–,–,O=c1c(-c2ccc(O)cc2)coc2cc(O)cc(O)c12 [Genistein],–,–,–,–,AUC 0→t in product C group compared with product A or B group [1]: lower significantly
–,–,–,–,–,4.1 h,3.37 ± 0.21 h,67.8 ng·h/mL,7.57 h,0.167 h,5.25 ± 0.472 h,–,11.9 ± 4.36 ng/mL,32.3 ± 7.57 ng/mL,17.1 ng·h/mL,0.167 h,COc1cc(C2OCC3C(c4ccc(O[C@@H]5O[C@H](CO)[C@@H](O)[C@H](O)[C@H]5O)c(OC)c4)OCC23)ccc1O (stereo partly drawn) [Pinoresinol-β-D-glucoside],–,32 ng·h/mL,–,–,"P app, product C group versus product B group (Caco-2 cells; Caco-2 monolayer): no significant difference; AUC 0→t in product C group, increased to % compared to that in product A or B groups [1]: 299%"
–,–,–,–,–,9.33 h,10.4 ± 0.36 h,3.99 ng·h/mL,9.4 h,0.333 h,8.9 ± 0.898 h,–,0.895 ± 0.166 ng/mL,0.231 ± 0.144 ng/mL,–,0.333 h,COc1cc(C[C@H]2C(=O)OC[C@@H]2Cc2ccc(OC)c(OC)c2)ccc1O [Arctigenin],110%,4.44 ng·h/mL,–,–,AUC 0→t in product C group compared with product A or B group [1]: lower significantly
125%,144 ng·h/mL,8.22 h,0.167 h,4.62 ± 0.877 h,7 h,5.27 ± 0.93 h,52.4 ng·h/mL,7.12 h,0.167 h,4.67 ± 1.05 h,15.6 ± 4.39 ng/mL,12.6 ± 2.23 ng/mL,8.02 ± 0.493 ng/mL,–,0.167 h,O=c1c(O)c(-c2ccc(O)c(O)c2)oc2cc(O)cc(O)c12 [Quercetin],256%,65 ng·h/mL,opposite,opposite,–
165%,0.63 ng·h/mL,–,0.267 h,8.03 ± 0.305 h,–,–,0.822 ng·h/mL,–,0.333 h,9.2 ± 0.455 h,0.055 ± 0.0154 ng/mL,–,0.0753 ± 0.0285 ng/mL,0.548 ng·h/mL,–,O=c1c(-c2ccc(O)cc2)coc2cc(O[C@@H]3O[C@H](CO)[C@@H](O)[C@H](O)[C@H]3O)cc(O)c12 [Genistin],–,–,–,–,"AUC 0→t in product C group, increased to % compared to that in product A or B groups [1]: 131%"
301%,–,3.98 h,0.35 h,3.82 ± 0.28 h,4.5 h,4.1 ± 0.628 h,–,7.35 h,0.167 h,5.5 ± 1.27 h,–,358 ± 157 ng/mL,–,–,0.3 h,O=C(O)[C@]1(O)C[C@@H](O)[C@@H](O)[C@H](O)C1 [Quinic acid],24.0%,–,no significant difference,higher significantly,–
–,–,–,–,–,–,–,–,–,–,–,–,–,–,–,–,C[C@@H]1O[C@@H](O[C@H]2[C@H](O[C@H]3CC[C@@]4(C)[C@@H](CC[C@]5(C)[C@@H]4CC=C4[C@@H]6CC(C)(C)CC[C@]6(C(=O)O[C@@H]6O[C@H](CO[C@@H]7O[C@H](CO)[C@@H](O)[C@H](O)[C@H]7O)[C@@H](O)[C@H](O)[C@H]6O)CC[C@]45C)[C@]3(C)CO)OC[C@H](O)[C@@H]2O)[C@H](O)[C@H](O)[C@H]1O [dipsacoside B],–,–,–,–,absorption into Caco-2 cells (Caco-2 cells): might not be absorbed well

Compound,"P app in product C group, % compared to that in product A group (Caco-2 cells; Caco-2 monolayer)",AUC(0-inf) ([1]; oral product A),MRT ([1]; oral product A),Tmax ([1]; oral product A),half-life ([1]; oral product A),MRT ([1]; oral product B),half-life ([1]; oral product B),AUC(0-inf) ([1]; oral product C),MRT ([1]; oral product C),Tmax ([1]; oral product C),half-life ([1]; oral product C),"Cmax [1, 2]","Cmax [1, 3]","Cmax [1, 4]",AUC(0-t) [1],Tmax ([1]; oral product B),"P app in product C group, % compared with that in product B group (Caco-2 cells; Caco-2 monolayer)",AUC(0-inf) ([1]; oral product B),bioavailability in product C group compared with that in product A group [1],bioavailability in product C group compared with that in product B group [1],other results
C[C@@H]1O[C@@H](OC[C@H]2O[C@@H](Oc3c(-c4ccc(O)c(O)c4)oc4cc(O)cc(O)c4c3=O)[C@H](O)[C@@H](O)[C@@H]2O)[C@H](O)[C@H](O)[C@H]1O [Rutin],213%,10.3 ng·h/mL,5.02 h,0.167 h,7.93 ± 0.837 h,4.35 h,8.17 ± 1.55 h,22.8 ng·h/mL,4.88 h,0.167 h,7.55 ± 0.613 h,4.08 ± 1.99 ng/mL,14.6 ± 1.65 ng/mL,19.8 ± 3.93 ng/mL,–,–,210%,30.5 ng·h/mL,significantly higher,no significant difference,–
O=c1c(O[C@@H]2O[C@H](CO)[C@H](O)[C@H](O)[C@H]2O)c(-c2ccc(O)c(O)c2)oc2cc(O)cc(O)c12 [Hyperoside],129%,9.89 ng·h/mL,7.27 h,0.167 h,6.83 ± 1.63 h,6.82 h,6.68 ± 0.487 h,24.6 ng·h/mL,6.45 h,0.167 h,7.05 ± 0.688 h,5.25 ± 0.859 ng/mL,9.68 ± 4.39 ng/mL,22.1 ± 1.9 ng/mL,–,–,195%,10.4 ng·h/mL,significantly higher,significantly higher,–
O=c1c(O[C@@H]2O[C@H](CO)[C@@H](O)[C@H](O)[C@H]2O)c(-c2ccc(O)c(O)c2)oc2cc(O)cc(O)c12 [Isoquercitrin],169%,2.63 ng·h/mL,9.28 h,0.167 h,7.27 ± 0.438 h,8.3 h,7.85 ± 0.515 h,5.51 ng·h/mL,9.25 h,0.267 h,7.58 ± 0.868 h,0.504 ± 0.351 ng/mL,0.619 ± 0.212 ng/mL,1 ± 0.3 ng/mL,–,0.333 h,234%,3.25 ng·h/mL,no significantly different,no significantly different,–
